Experiments:
OX2 = biological target: T1, OX2 (Homo sapiens, UniProt O43614); test: Orexin receptor cell-based functional assay, [Ca2+]i by FLIPR, CHO-OX2 cells; settings: FLIPR calcium, antagonism of EC90 of [OX]
T1 construct: expressed in transfected cells; host or cells: CHO (CHO-OX2)
T1 sequence (O43614 1-444): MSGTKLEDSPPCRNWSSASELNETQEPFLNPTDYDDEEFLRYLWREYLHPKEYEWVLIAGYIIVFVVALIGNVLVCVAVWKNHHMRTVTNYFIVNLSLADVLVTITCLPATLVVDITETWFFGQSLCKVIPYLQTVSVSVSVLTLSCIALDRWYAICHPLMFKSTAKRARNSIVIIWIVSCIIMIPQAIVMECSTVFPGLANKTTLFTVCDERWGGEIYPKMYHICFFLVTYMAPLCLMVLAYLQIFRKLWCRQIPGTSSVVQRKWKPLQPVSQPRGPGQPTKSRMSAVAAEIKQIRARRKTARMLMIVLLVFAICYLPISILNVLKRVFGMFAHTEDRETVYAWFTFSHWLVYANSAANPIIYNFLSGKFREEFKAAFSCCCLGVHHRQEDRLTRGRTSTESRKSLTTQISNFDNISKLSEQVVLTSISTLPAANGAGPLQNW
Description: (§1) Measurement of [Ca^2+]i using a FLIPR: CHO-OX1 or CHO-OX2 cells were seeded into black-walled clear-base 384-well plates (Corning, catalog #3712) at a density of 20,000 cells per well in F12-K medium supplemented with 10% FBS and then incubated in a 5% CO2, 37° C. incubator overnight to reach 90% confluency. The cells were incubated with equal volume of calcium6 loading buffer (Molecular Devices, Inc.) containing 2.5 mM probenecid at 37° C. for 2 h, followed by test compounds (dose-range 0.1 nM-10 μM) for another 30 min. The plates were then placed into a FLIPR (Molecular Devices, Inc.) to monitor fluorescence (λ excitation 488 nm, λ emission 540 nm) before and after the addition of EC90 of [OX]. Results for exemplary compounds of Formulae (I), (Ia), (Ib), (II), (IIa), (III), (IIIa), (IV), (IVa), (V), or (Va) are shown in Table 3.

OX1 = biological target: T2, OX1 (Homo sapiens, UniProt O43613); test: Orexin receptor cell-based functional assay, [Ca2+]i by FLIPR, CHO-OX1 cells; settings: FLIPR calcium, antagonism of EC90 of [OX], read-out: OXI, IC50
T2 construct: expressed in transfected cells; host or cells: CHO (CHO-OX1)
T2 sequence (O43613 1-425): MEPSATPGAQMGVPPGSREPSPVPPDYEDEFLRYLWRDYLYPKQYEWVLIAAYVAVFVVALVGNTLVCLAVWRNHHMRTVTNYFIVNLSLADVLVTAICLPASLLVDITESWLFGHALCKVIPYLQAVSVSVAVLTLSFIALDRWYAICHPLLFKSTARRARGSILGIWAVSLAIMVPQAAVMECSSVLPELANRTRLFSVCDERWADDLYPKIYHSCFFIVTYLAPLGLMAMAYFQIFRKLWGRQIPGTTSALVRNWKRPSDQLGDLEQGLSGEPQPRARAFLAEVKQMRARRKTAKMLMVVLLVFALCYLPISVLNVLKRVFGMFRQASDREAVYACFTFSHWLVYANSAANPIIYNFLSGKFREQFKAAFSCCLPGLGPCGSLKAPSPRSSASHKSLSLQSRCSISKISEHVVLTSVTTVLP
Description: as §1, with “[OX].” for “[OX]. Results for exemplary compounds of Formulae (I), (Ia), (Ib), (II), (IIa), (III), (IIIa), (IV), (IVa), (V), or (Va) are shown in Table 3.”

Row | SMILES | IC50 (OX2) [µM] | IC50 (OX1) [nM]
1 | CC(C)n1cc(-c2ncccn2)c(C(=O)N2CC(F)(F)C[C@@H](C)[C@H]2CNc2ncc(C(F)(F)F)cn2)n1 [Compound 237, ((2S,3R)-5,5-difluoro-3-methyl-2-(((5-(trifluoromethyl)pyrimidin-2-yl)amino)methyl)piperidin-1-yl)(1-isopropyl-4-(pyrimidin-2-yl)-1H-pyrazol-3-yl)methanone] | > 5 | 1700
2 | C[C@@H]1CC(F)(F)CN(C(=O)c2nn(C)nc2-c2ccc(Cl)cn2)[C@@H]1CNc1ncc(C(F)(F)F)cn1 [Compound 249] | > 5 | 8
3 | Cc1ccc(-n2nccn2)c(C(=O)N2CC(F)(F)C[C@@H](C)[C@H]2COc2ccc(C(F)(F)F)cn2)n1 [Compound 204, ((2S,3R)-5,5-difluoro-3-methyl-2-(((5-(trifluoromethyl)pyridin-2-yl)oxy)methyl)piperidin-1-yl)(6-methyl-3-(2H-1,2,3-triazol-2-yl)pyridin-2-yl)methanone] | > 5 | 40
4 | Cc1ccc(-c2ncccn2)c(C(=O)N2CC(F)(F)C[C@@H](C)[C@H]2COc2ccc(C(F)(F)F)cn2)n1 [Compound 215, ((2S,3R)-5,5-difluoro-3-methyl-2-(((5-(trifluoromethyl)pyridin-2-yl)oxy)methyl)piperidin-1-yl)(6-methyl-3-(pyrimidin-2-yl)pyridin-2-yl)methanone] | > 5 | 5
5 | C[C@@H]1CC(F)(F)CN(C(=O)c2nn(C)cc2-c2ccncn2)[C@@H]1CNc1ncc(C(F)(F)F)cn1 [Compound 241, ((2S,3R)-5,5-difluoro-3-methyl-2-(((5-(trifluoromethyl)pyrimidin-2-yl)amino)methyl)piperidin-1-yl)(1-methyl-4-(pyrimidin-4-yl)-1H-pyrazol-3-yl)methanone] | > 5 | > 1000
6 | Cc1ccc(-n2nccn2)c(C(=O)N2CC(F)(F)C[C@@H](C)[C@H]2CNc2ccc(C(F)(F)F)cn2)n1 [Compound 174] | > 5 | 4
7 | Cc1ccc(-n2nccn2)c(C(=O)N2CC(F)(F)C[C@@H](C)[C@H]2CNc2ncc(C(F)(F)F)cn2)n1 [Compound 12] | > 5 | 15
8 | Cc1ccc(-c2ncccn2)c(C(=O)N2CC(F)(F)C[C@@H](C)[C@H]2CNc2ncc(Cl)cn2)n1 [Compound 18, ((2S,3R)-2-(((5-chloropyrimidin-2-yl)amino)methyl)-5,5-difluoro-3-methylpiperidin-1-yl)(6-methyl-3-(pyrimidin-2-yl)pyridin-2-yl)methanone] | > 5 | 18
9 | COc1cccc(-c2cn(C)nc2C(=O)N2CC(F)(F)C[C@@H](C)[C@H]2CNc2ncc(C(F)(F)F)cn2)c1 [Compound 29] | > 5 | 4
10 | COc1ccc(-n2nccn2)c(C(=O)N2CC(F)(F)C[C@@H](C)[C@H]2CNc2ccc(C(F)(F)F)cn2)n1 [Compound 202, ((2S,3R)-5,5-difluoro-3-methyl-2-(((5-(trifluoromethyl)pyridin-2-yl)amino)methyl)piperidin-1-yl)(6-methoxy-3-(2H-1,2,3-triazol-2-yl)pyridin-2-yl)methanone] | > 5 | 150
11 | C[C@@H]1CC(F)(F)CN(C(=O)c2nn(C)cc2-c2ncc(F)cn2)[C@@H]1COc1ncc(C(F)(F)F)cn1 [Compound 246] | > 5 | 4820
12 | C[C@@H]1CC(F)(F)CN(C(=O)c2cc(Cl)ccc2-c2ncccn2)[C@@H]1CNc1ncc(C(F)(F)F)cn1 [Compound 56, (5-chloro-2-(pyrimidin-2-yl)phenyl)((2S,3R)-5,5-difluoro-3-methyl-2-(((5-(trifluoromethyl)pyrimidin-2-yl)amino)methyl)piperidin-1-yl)methanone] | > 5 | 7
13 | Cc1ccc(-c2ccccn2)c(C(=O)N2CC(F)(F)C[C@@H](C)[C@H]2CNc2ncc(C(F)(F)F)cn2)n1 [Compound 16, ((2S,3R)-5,5-difluoro-3-methyl-2-(((5-(trifluoromethyl)pyrimidin-2-yl)amino)methyl)piperidin-1-yl)(6′-methyl-[2,3′-bipyridin]-2′-yl)methanone] | > 5 | 60
14 | C[C@@H]1CC(F)(F)CN(C(=O)c2nn(C)cc2-c2ccccn2)[C@@H]1CNc1ccc(C(F)(F)F)cn1 [Compound 167] | > 5 | 5
15 | Cc1nc(C(=O)N2CC(F)(F)C[C@@H](C)[C@H]2CNc2ncc(C(F)(F)F)cn2)c(-c2ncccc2C)s1 [Compound 75] | > 5 | 12
16 | Cc1cccc(-c2cn(C)nc2C(=O)N2CC(F)(F)C[C@@H](C)[C@H]2CNc2cnc(C(F)(F)F)cn2)n1 [Compound 132] | > 5 | 7

The next lines start with the values.

Row | IC50 (OX2) [µM] | IC50 (OX1) [nM] | SMILES
17 | > 5 | 130 | Cc1nc(C(=O)N2CC(F)(F)C[C@@H](C)[C@H]2CNc2ncc(C(F)(F)F)cn2)c(-c2ccc(F)cc2)o1 [Compound 84]
18 | > 5 | 6 | Cc1ccc(-c2sc(C)nc2C(=O)N2CC(F)(F)C[C@@H](C)[C@H]2CNc2cnc(C(F)(F)F)cn2)nc1 [Compound 148]
19 | > 5 | > 1000 | C[C@@H]1CC(F)(F)CN(C(=O)c2cnn(C)c2-c2ccccn2)[C@@H]1CNc1ncc(C(F)(F)F)cn1 [Compound 95]
20 | > 5 | 17 | Cc1ccnc(-c2cn(C)nc2C(=O)N2CC(F)(F)C[C@@H](C)[C@H]2CNc2ncc(C(F)(F)F)cn2)n1 [Compound 225, ((2S,3R)-5,5-difluoro-3-methyl-2-(((5-(trifluoromethyl)pyrimidin-2-yl)amino)methyl)piperidin-1-yl)(1-methyl-4-(4-methylpyrimidin-2-yl)-1H-pyrazol-3-yl)methanone]
21 | > 5 | 102 | C[C@@H]1CC(F)(F)CN(C(=O)c2nn(C)nc2-c2ccc(F)cc2)[C@@H]1CNc1ncc(C(F)(F)F)cn1 [Compound 81]
22 | > 5 | 57 | C[C@@H]1CC(F)(F)CN(C(=O)c2nn(C)cc2-c2ncc(F)cn2)[C@@H]1CN(C)c1ncc(C(F)(F)F)cn1 [Compound 263]
23 | > 5 | 7 | Cc1cc(C(=O)N2CC(F)(F)C[C@@H](C)[C@H]2CNc2ncc(C(F)(F)F)cn2)c(-c2ccccn2)s1 [Compound 91]
24 | > 5 | 7 | C[C@@H]1CC(F)(F)CN(C(=O)c2nn(C)cc2-c2cccc(C(F)(F)F)n2)[C@@H]1CNc1ncc(C(F)(F)F)cn1 [Compound 229, ((2S,3R)-5,5-difluoro-3-methyl-2-(((5-(trifluoromethyl)pyrimidin-2-yl)amino)methyl)piperidin-1-yl)(1-methyl-4-(6-(trifluoromethyl)pyridin-2-yl)-1H-pyrazol-3-yl)methanone]
25 | > 5 | 7 | Cc1cccc(-c2cn(C)nc2C(=O)N2CC(F)(F)C[C@@H](C)[C@H]2CNc2ncc(C(F)(F)F)cn2)n1 [Compound 46]
26 | > 5 | 82 | CCn1cc(-c2ncccn2)c(C(=O)N2CC(F)(F)C[C@@H](C)[C@H]2CNc2ncc(C(F)(F)F)cn2)n1 [Compound 232, ((2S,3R)-5,5-difluoro-3-methyl-2-(((5-(trifluoromethyl)pyrimidin-2-yl)amino)methyl)piperidin-1-yl)(1-ethyl-4-(pyrimidin-2-yl)-1H-pyrazol-3-yl)methanone]
27 | > 5 | 186 | Cc1nc(C(=O)N2CC(F)(F)C[C@@H](C)[C@H]2CNc2cnc(C(F)(F)F)cn2)c(-c2ccccc2)o1 [Compound 157]

— patent US12084437B2, “Halo-substituted piperidines as orexin receptor modulators” (AstraZeneca AB, priority 2016, dated 2024)
